Patent US10597388B2, “Pyridazinone herbicides” (FMC CORPORATION, priority 2014, dated 2020)

Key:
Assay in all cases: Test D controlled growth environment herbicide test, pre- and postemergence
Format in all cases: in vivo
[1] = test system: bromegrass, downy (downy bromegrass, Bromus tectorum)
Text: (§1) Seeds of plant species selected from bluegrass (annual bluegrass, Poa annua), blackgrass (Alopecurus myosuroides), Canada thistle (Cirsium arvense), canarygrass (Phalaris minor), chickweed (common chickweed, Stellaria media), geranium, cutleaf (cutleaf geranium, Geranium dissectum), galium (catchweed bedstraw, Galium aparine), bromegrass, downy (downy bromegrass, Bromus tectorum), field poppy (Papaver rhoeas), field violet (Viola arvensis), foxtail, green (green foxtail, Setaria viridis), deadnettle (henbit deadnettle, Lamium amplexicaule), ryegrass, Italian (Italian ryegrass, Lolium multiflorum), kochia (Kochia scoparia), lambsquarters (Chenopodium album), oilseed rape (Brassica napus), pigweed (Amaranthus retroflexus), chamomile (scentless chamomile, Matricaria inodora), Russian thistle (Salsola kali), speedwell (bird's-eye speedwell, Veronica persica), barley, spring (spring barley, Hordeum vulgare), wheat, spring (spring wheat, Triticum aestivum), buckwheat, wild (wild buckwheat, Polygonum convolvulus), mustard, wild (wild mustard, Sinapis arvensis), oat, wild (wild oat, Avena fatua), radish, wild (wild radish, Raphanus raphanistrum), windgrass (Apera spica-venti), barley, winter (winter barley, Hordeum vulgare), and wheat, winter (winter wheat, Triticum aestivum) were planted into a silt loam soil and treated preemergence with test chemicals formulated in a non-phytotoxic solvent mixture which included a surfactant.
(§2) At the same time, these species were planted in pots containing Redi-Earth® planting medium (Scotts Company, 14111 Scottslawn Road, Marysville, Ohio 43041) comprising spaghnum peat moss, vermiculite, wetting agent and starter nutrients and treated with postemergence applications of the test chemicals formulated in the same manner. Plants ranged in height from 2 to 18 cm (1- to 4-leaf stage). Treated plants and controls were maintained in a controlled growth environment for 14 to 21 d after which time all species were compared to controls and visually evaluated. Plant response ratings, summarized in Table D, are based on a scale of 0 to 100 where 0 is no effect and 100 is complete control. A dash (-) response means no test result.

[2] = test system: deadnettle (henbit deadnettle, Lamium amplexicaule)
Text: as §1, §2

[3] = test system: blackgrass (Alopecurus myosuroides)
Text: as §1, §2

[4] = test system: wheat, spring (spring wheat, Triticum aestivum)
Text: as §1, §2

[5] = test system: wheat, winter (winter wheat, Triticum aestivum)
Text: as §1, §2

[6] = test system: mustard, wild (wild mustard, Sinapis arvensis)
Text: as §1, §2

[7] = test system: foxtail, green (green foxtail, Setaria viridis)
Text: as §1, §2

[8] = test system: oilseed rape (Brassica napus)
Text: as §1, §2

[9] = test system: speedwell (bird's-eye speedwell, Veronica persica)
Text: as §1, §2

[10] = test system: ryegrass, Italian (Italian ryegrass, Lolium multiflorum)
Text: as §1, §2

[11] = test system: chickweed (common chickweed, Stellaria media)
Text: as §1, §2

[12] = test system: Russian thistle (Salsola kali)
Text: as §1, §2

[13] = test system: oat, wild (wild oat, Avena fatua)
Text: as §1, §2

[14] = Postemergence, 125 g ai/ha, visual rating on scale 0 (no effect) to 100 (complete control), 14 to 21 d
[15] = Postemergence, 250 g ai/ha, scale 0 to 100 (0 no effect, 100 complete control)
[16] = postemergence, 62 g ai/ha, scale 0 to 100, 0 no effect, 100 complete control
[17] = Postemergence, 31 g ai/ha, scale 0 to 100 (0 no effect, 100 complete control)
[18] = Preemergence, 62 g ai/ha, scale 0 to 100 (0 no effect, 100 complete control)
[19] = Preemergence, 125 g ai/ha, scale 0 to 100 (0 no effect, 100 complete control)
[20] = Preemergence, 250 g ai/ha, scale 0 to 100, 0 no effect, 100 complete control

SMILES: Cc1ccc2ccccc2c1-c1c(O)c(Br)nn(C)c1=O [Compound 23]
- Plant response rating, Bromegrass, Downy [1, 14]: 60
- Plant response rating, Bromegrass, Downy [1, 15]: 75
- Plant response rating, Bromegrass, Downy [1, 16]: 45
- Plant response rating, Deadnettle [2, 14]: 75
- Plant response rating, Deadnettle [2, 15]: 85
- Plant response rating, Deadnettle [2, 16]: 65
- Plant response rating, Blackgrass [3, 14]: 75
- Plant response rating, Blackgrass [3, 15]: 80
- Plant response rating, Blackgrass [3, 16]: 70
- Plant response rating, Wheat, Spring [4, 14]: 60
- Plant response rating, Wheat, Spring [4, 15]: 60
- Plant response rating, Wheat, Spring [4, 16]: 50
- Plant response rating, Wheat, Winter [5, 14]: 55
- Plant response rating, Wheat, Winter [5, 15]: 70
- Plant response rating, Wheat, Winter [5, 16]: 40
- Plant response rating, Mustard, Wild [6, 14]: 100
- Plant response rating, Mustard, Wild [6, 15]: 100
- Plant response rating, Mustard, Wild [6, 16]: 95
- Plant response rating, Foxtail, Green [7, 14]: 80
- Plant response rating, Foxtail, Green [7, 15]: 90
- Plant response rating, Foxtail, Green [7, 16]: 75
- Plant response rating, Oilseed Rape [8, 14]: 65
- Plant response rating, Oilseed Rape [8, 15]: 85
- Plant response rating, Oilseed Rape [8, 16]: 60
- Plant response rating, Speedwell [9, 14]: 75
- Plant response rating, Speedwell [9, 15]: 95
- Plant response rating, Speedwell [9, 16]: 100
- Plant response rating, Ryegrass, Italian [10, 14]: 85
- Plant response rating, Ryegrass, Italian [10, 15]: 85
- Plant response rating, Ryegrass, Italian [10, 16]: 80
- Plant response rating, Chickweed [11, 14]: 100
- Plant response rating, Chickweed [11, 15]: 100
- Plant response rating, Chickweed [11, 16]: 100
- Plant response rating, Russian Thistle [12, 14]: 75
- Plant response rating, Russian Thistle [12, 15]: 80
- Plant response rating, Russian Thistle [12, 16]: 75
- Plant response rating, Oat, Wild [13, 14]: 95
- Plant response rating, Oat, Wild [13, 15]: 95
- Plant response rating, Oat, Wild [13, 16]: 75

SMILES: CCc1sc2c(C)cc(C)cc2c1-c1c(O)c(C)nn(C)c1=O [Compound 57]
- Bromegrass, Downy plant response rating [1, 17]: 15
- Plant response rating, Bromegrass, Downy [1, 14]: 25
- Plant response rating, Bromegrass, Downy [1, 15]: 35
- Plant response rating (scale of 0 to 100), Bromegrass, Downy ([1]; Preemergence, 31 g ai/ha): 0
- Plant response rating, Bromegrass, Downy [1, 18]: 5
- Plant response rating, Bromegrass, Downy [1, 19]: 25
- Plant response rating, Bromegrass, Downy [1, 20]: 30
- Plant response rating, Bromegrass, Downy [1, 16]: 20
- Deadnettle plant response rating [2, 17]: 70
- Plant response rating, Deadnettle [2, 14]: 85
- Plant response rating, Deadnettle [2, 15]: 100
- Plant response rating (scale of 0 to 100), Deadnettle ([2]; Preemergence, 31 g ai/ha): 0
- Plant response rating, Deadnettle [2, 18]: 20
- Plant response rating, Deadnettle [2, 19]: 25
- Plant response rating, Deadnettle [2, 20]: 45
- Plant response rating, Deadnettle [2, 16]: 90
- Blackgrass plant response rating [3, 17]: 15
- Plant response rating, Blackgrass [3, 14]: 55
- Plant response rating, Blackgrass [3, 15]: 75
- Plant response rating (scale of 0 to 100), Blackgrass ([3]; Preemergence, 31 g ai/ha): 25
- Plant response rating, Blackgrass [3, 18]: 35
- Plant response rating, Blackgrass [3, 19]: 70
- Plant response rating, Blackgrass [3, 20]: 80
- Plant response rating, Blackgrass [3, 16]: 45
- Wheat, Spring plant response rating [4, 17]: 0
- Plant response rating, Wheat, Spring [4, 14]: 10
- Plant response rating, Wheat, Spring [4, 15]: 10
- Plant response rating (scale of 0 to 100), Wheat, Spring ([4]; Preemergence, 31 g ai/ha): 5
- Plant response rating, Wheat, Spring [4, 18]: 5
- Plant response rating, Wheat, Spring [4, 19]: 5
- Plant response rating, Wheat, Spring [4, 20]: 10
- Plant response rating, Wheat, Spring [4, 16]: 10
- Wheat, Winter plant response rating [5, 17]: 5
- Plant response rating, Wheat, Winter [5, 14]: 10
- Plant response rating, Wheat, Winter [5, 15]: 15
- Plant response rating (scale of 0 to 100), Wheat, Winter ([5]; Preemergence, 31 g ai/ha): 5
- Plant response rating, Wheat, Winter [5, 18]: 5
- Plant response rating, Wheat, Winter [5, 19]: 5
- Plant response rating, Wheat, Winter [5, 20]: 10
- Plant response rating, Wheat, Winter [5, 16]: 10
- Mustard, Wild plant response rating [6, 17]: 30
- Plant response rating, Mustard, Wild [6, 14]: 30
- Plant response rating, Mustard, Wild [6, 15]: 40
- Plant response rating (scale of 0 to 100), Mustard, Wild ([6]; Preemergence, 31 g ai/ha): 0
- Plant response rating, Mustard, Wild [6, 18]: 25
- Plant response rating, Mustard, Wild [6, 19]: 25
- Plant response rating, Mustard, Wild [6, 20]: 30
- Plant response rating, Mustard, Wild [6, 16]: 30
- Foxtail, Green plant response rating [7, 17]: 75
- Plant response rating, Foxtail, Green [7, 14]: 75
- Plant response rating, Foxtail, Green [7, 15]: 90
- Plant response rating (scale of 0 to 100), Foxtail, Green ([7]; Preemergence, 31 g ai/ha): 10
- Plant response rating, Foxtail, Green [7, 18]: 70
- Plant response rating, Foxtail, Green [7, 19]: 100
- Plant response rating, Foxtail, Green [7, 20]: 100
- Plant response rating, Foxtail, Green [7, 16]: 75
- Oilseed Rape plant response rating [8, 17]: 20
- Plant response rating, Oilseed Rape [8, 14]: 65
- Plant response rating, Oilseed Rape [8, 15]: 65
- Plant response rating (scale of 0 to 100), Oilseed Rape ([8]; Preemergence, 31 g ai/ha): 0
- Plant response rating, Oilseed Rape [8, 18]: 0
- Plant response rating, Oilseed Rape [8, 19]: 0
- Plant response rating, Oilseed Rape [8, 20]: 25
- Plant response rating, Oilseed Rape [8, 16]: 25
- Speedwell plant response rating [9, 17]: 100
- Plant response rating, Speedwell [9, 14]: 25
- Plant response rating, Speedwell [9, 15]: 100
- Plant response rating (scale of 0 to 100), Speedwell ([9]; Preemergence, 31 g ai/ha): 25
- Plant response rating, Speedwell [9, 18]: 90
- Plant response rating, Speedwell [9, 19]: 100
- Plant response rating, Speedwell [9, 20]: 100
- Plant response rating, Speedwell [9, 16]: 15
- Ryegrass, Italian plant response rating [10, 17]: 25
- Plant response rating, Ryegrass, Italian [10, 14]: 75
- Plant response rating, Ryegrass, Italian [10, 15]: 85
- Plant response rating (scale of 0 to 100), Ryegrass, Italian ([10]; Preemergence, 31 g ai/ha): 55
- Plant response rating, Ryegrass, Italian [10, 18]: 75
- Plant response rating, Ryegrass, Italian [10, 19]: 80
- Plant response rating, Ryegrass, Italian [10, 20]: 95
- Plant response rating, Ryegrass, Italian [10, 16]: 50
- Chickweed plant response rating [11, 17]: 100
- Plant response rating, Chickweed [11, 14]: 100
- Plant response rating, Chickweed [11, 15]: 100
- Plant response rating (scale of 0 to 100), Chickweed ([11]; Preemergence, 31 g ai/ha): 100
- Plant response rating, Chickweed [11, 18]: 100
- Plant response rating, Chickweed [11, 19]: 100
- Plant response rating, Chickweed [11, 20]: 100
- Plant response rating, Chickweed [11, 16]: 100
- Oat, Wild plant response rating [13, 17]: 15
- Plant response rating, Oat, Wild [13, 14]: 65
- Plant response rating, Oat, Wild [13, 15]: 85
- Plant response rating (scale of 0 to 100), Oat, Wild ([13]; Preemergence, 31 g ai/ha): 15
- Plant response rating, Oat, Wild [13, 18]: 30
- Plant response rating, Oat, Wild [13, 19]: 50
- Plant response rating, Oat, Wild [13, 20]: 60
- Plant response rating, Oat, Wild [13, 16]: 25
